Assay results as given in patent publication US12098162B2, “Neutral glycosylated amides and dianionic glucuronidated acids as stabilizers for biological molecules” (Extremochem, LDA, priority 2017, dated 2024).

Experiments:
Assay type in all cases: physicochemical
lysozyme = lysozyme (Gallus gallus, UniProt P00698); assay: Stabilization of lysozyme measured by DSF (melting temperature); conditions: 0.25 M stabiliser, FIG. 1; for stabilization effect on lysozyme (increase of melting temperature Tm): 25 mM sodium acetate buffer pH 3.6 and phosphate buffer pH 12, Tm without compounds 71 °C (pH 3.6) and 55 °C (pH 12); for stabilization effect on lysozyme at pH 12 compared with pH 3.6: DSF
Chain of lysozyme (P00698 19-147): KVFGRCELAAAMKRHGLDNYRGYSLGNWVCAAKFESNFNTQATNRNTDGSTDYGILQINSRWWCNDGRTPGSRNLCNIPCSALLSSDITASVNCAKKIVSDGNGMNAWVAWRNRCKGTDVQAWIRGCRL
Description: (§1) Differential Scanning Fluorimetry (DSF) Assay
(§2) The protein melting temperature (Tm) determination was performed by monitoring protein unfolding with the fluoroprobe SYPRO Orange dye (Molecular Probes), which although completely quenched in aqueous environment, emits fluorescence upon binding to protein hydrophobic patches. Such increase in fluorescence can be measured as a function of temperature. The thermal shift assay was performed on an iCycle iQ5 Real Time PCR Detection System (Bio-Rad), equipped with a charge-coupled device (CCD) camera and a Cy3 filter with excitation and emission wavelengths of 490 and 575 nm, respectively. This equipment can simultaneously detect the fluorescence changes in 96-well plates (low profile plate, Bio-Rad) and thus can be used for parallel thermal stability assays. The 96-well plates are sealed with optical quality sealing tape (Bio-Rad) and centrifuged at 2500 g for 1 minutes immediately before the assay to remove possible air bubbles. The plates are subsequently heated from 20 to 90° C. with stepwise increments of 1° C. with 60 seconds equilibration time, followed by the fluorescence read out. Fluorescence intensities versus temperature are used to calculate the protein melting temperature (Tm) by determining the first derivative (d(Rfu)/dT) and extract the exact transition inflection point. Delta TM values (DTM) for the various conditions were calculated by subtracting the TM value obtained for the reference from the TM value obtained for each condition.
(§3) In a typical assay with a total volume of 20 μL, a protein concentration from 0.1-0.5 mg/mL and a dye concentration of 5 fold were used to guarantee the best signal to noise ratio. The protein stock solutions were prepared in their corresponding buffers before performing the DSF experiments. Stabiliser solutions and dyes were prepared according to each assay specific conditions. The assay was prepared by adding 1-2 μL of protein to 8-9 μL of dye buffer solution, and 10 μL of compound solution. Controls were prepared by replacing the volume of stabilisers by the correspondent buffer.
The stabilization of lysozyme in the presence of several stabilisers at 0.25 M concentration and at pH 3.6 and pH 12 was studied using DSF (FIG. 1). […] The stabilization effect was higher for GBA, GaGlyA, b-GGlyA, b-GaLA, b-GaGlyA, and b-GaBA at the higher pH (pH 12). All new compounds are able to stabilise lysozyme under both stress conditions.

adalimumab (Humira®) [1] = assay: Stabilization assay of adalimumab measured by DSF; conditions: 0.25 M stabiliser; phosphate buffer pH 12; Tm without compounds 41 °C; FIG. 3
Description: as §1
as §2, with “The 96-well plates are sealed with optical quality sealing tape (Bio-Rad) and centrifuged at 2500 g for 1 minutes immediately before the assay to remove possible air bubbles.” left out, “condition. […]” for “condition.”

Factor IX = Factor IX (Homo sapiens, UniProt P00740); assay: Stabilization assay of Factor IX measured by DSF; conditions: 0.25 M stabiliser in water, pH 7-8; Tm without compounds 50 °C; FIG. 5
Chain of Factor IX (P00740 47-461): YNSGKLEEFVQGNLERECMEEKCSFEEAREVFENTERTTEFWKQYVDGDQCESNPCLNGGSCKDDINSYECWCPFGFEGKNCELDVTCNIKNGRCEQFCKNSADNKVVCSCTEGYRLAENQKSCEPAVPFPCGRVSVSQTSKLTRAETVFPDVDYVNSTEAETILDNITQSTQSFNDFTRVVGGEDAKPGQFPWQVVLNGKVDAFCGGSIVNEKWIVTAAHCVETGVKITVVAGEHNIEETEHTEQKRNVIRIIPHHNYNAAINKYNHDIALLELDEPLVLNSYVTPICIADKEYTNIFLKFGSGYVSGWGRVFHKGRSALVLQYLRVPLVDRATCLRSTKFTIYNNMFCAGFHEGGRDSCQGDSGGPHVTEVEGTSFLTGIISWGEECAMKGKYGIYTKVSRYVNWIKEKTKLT
Description: as §1, §2, §3
Stabilization of Factor IX using neutral amide-containing glycosides of the present invention were measured using DSF. The new stabilizers increased the melting temperature of factor IX at a 0.25 M concentration in water and at pH 7-8, as shown in FIG. 5.

adalimumab (Humira®) [2] = assay: Stabilization assay of adalimumab (Humira) measured by HPSEC under low pH stress; conditions: GaGlyA 0.5 M; Humira 0.4 mg/ml; room temperature, no thermal stress; compared with no stabiliser; FIG. 2
Description: High Performance Size Exclusion Chromatography (HPSEC) Assay
HP-SEC was performed with Waters 515 pump, a Waters 2487 Dual Absorbance Detector (Waters, USA) and a Rheodyme 77251 injector (Waters, USA). A TSK Gel G3000 SWXL column (300 mm×7.8 mm) (Tosoh Biosep, Germany) was used. The volume of injection was adjusted according to each sample concentration in order to inject […] sample of biological molecule, and separation was performed at a flow rate of 1.0 mL/min or adjusted as appropriate. A suitable running buffer was used, e.g., 100 mM sodium sulfate, 100 mM sodium phosphate dibasic pH 6.8 for Humira® samples. UV detection was performed at a wavelength suitable to detect the biological molecule, e.g., 280 nm. No thermal stress was applied and assay was performed at room temperature. Absorbance was measured to determine the concentration of biological molecule and thus determine amount of degredation of the biological molecule.
A pH titration of adalimumab (Humira®) to pH 3.2 was performed either in the absence and presence of stabiliser GaGlyA 0.5 M, and the results were analysed by HPSEC (FIG. 2). […] Absorbance was measured to determine the concentration of biological molecule and thus determine amount of degredation of the biological molecule. […]

ubiquitin = biological target: T1, ubiquitin (Homo sapiens, UniProt P0CG47); assay: Stabilization assay of ubiquitin measured by DSF; conditions: 0.25 M compound; phosphate buffer pH 12; Tm without compounds 72 °C; FIG. 4
T1 construct: Stabilization Assay of Ubiquitin Measured by DSF
Description: as §1
as §2, with “The 96-well plates are sealed with optical quality sealing tape (Bio-Rad) and centrifuged at 2500 g for 1 minutes immediately before the assay to remove possible air bubbles.” left out, “condition. […]” for “condition.”

Row | stabilization effect on lysozyme (increase of melting temperature Tm) (lysozyme) | stabilization effect on lysozyme at pH 12 compared with pH 3.6 (lysozyme) | stabilization of Factor IX (increase of melting temperature) (Factor IX) | increase of the melting temperature of ubiquitin (ubiquitin) [°C] | Compound | increase of the melting temperature of adalimumab (adalimumab (Humira®) [1]) [°C] | degradation of adalimumab after 12 hours at pH 3.2 (HPSEC) (adalimumab (Humira®) [2])
1 | showed a stabilization effect | higher |  |  | CC(CC(N)=O)O[C@@H]1O[C@H](CO)[C@H](O)[C@H](O)[C@H]1O (stereo partly drawn) [b-GaBA, 3-O-(β-D-galactopyranosyl)-3-hydroxybutyramide] | 22 | 
2 | showed a stabilization effect | higher |  |  | beta-galactosyl-lactamide [b-GaLA] |  | 
3 | showed a stabilization effect |  |  |  | beta-glucosyl-lactamide [b-GLA] |  | 
4 | showed a stabilization effect | higher |  |  | NC(=O)COC1O[C@H](CO)[C@H](O)[C@H](O)[C@H]1O (stereo partly shown) [GaGlyA] |  | much reduced
5 |  |  | showed stabilization of factor IX |  | NC(=O)COC1O[C@H](CO)[C@@H](O)[C@H](O)[C@H]1O (stereo partly shown) [GGlyA] |  | 
6 | showed a stabilization effect |  | showed stabilization of factor IX |  | NC(=O)CO[C@H]1O[C@H](CO)[C@@H](O)[C@H](O)[C@@H]1O [MglyA, 2-O-(α-D-mannopyranosyl)acetamide] |  | 
7 | showed a stabilization effect | higher | showed stabilization of factor IX | 9 | CC(CC(N)=O)OC1O[C@H](CO)[C@@H](O)[C@H](O)[C@H]1O (stereo partly drawn) [GBA, 3-O-(α/β-D-glucopyranosyl)-3-hydroxybutyramide] |  | 

Row | Compound | stabilization effect on lysozyme (increase of melting temperature Tm) (lysozyme) | stabilization effect on lysozyme at pH 12 compared with pH 3.6 (lysozyme) | stabilization of Factor IX (increase of melting temperature) (Factor IX) | increase of the melting temperature of ubiquitin (ubiquitin) [°C] | increase of the melting temperature of adalimumab (adalimumab (Humira®) [1]) [°C] | degradation of adalimumab after 12 hours at pH 3.2 (HPSEC) (adalimumab (Humira®) [2])
8 | C[C@H](O[C@H]1O[C@H](CO)[C@@H](O)[C@H](O)[C@@H]1O)C(N)=O [MLA, (2S)-2-O-(α-D-mannopyranosyl)-3-propanamide] | showed a stabilization effect |  |  |  |  | 
9 | C[C@H](OC1O[C@H](CO)[C@H](O)[C@H](O)[C@H]1O)C(N)=O (stereo partly shown) [GaLA] | showed a stabilization effect |  | showed stabilization of factor IX |  |  | 
